Source: US5439919A, “Arylglycinamide derivatives and preparative processes therefor” (Kyorin Pharmaceutical Co., Ltd., priority 1992, dated 1995)
Counter-ions that a name gives are not always drawn.

How the values were obtained:
urinary bladder = assay: Bladder selectivity (salivary secretion ID30 / rhythmic bladder contraction ED30); details: male rats, intraduodenal
Method: Male rats were given with small incision in the upper abdomen under urethane anesthesia and the test compound was administered intraduodenally. Thirty minutes later, 1 mg/kg of pilocarpine was administered subcutaneously. Saliva was collected on absorbent cotton kept in the mouth at every 30 minutes from the pilocarpine administration until 1.5 hours later. Antisecretory effects were estimated by the decrease in weight of absorbent cotton.

muscarinic receptor = target: T1, muscarinic receptor (Cavia porcellus, UniProt H0W1Z3); assay: Anticholinergic action on the specimen of isolated guinea pig ileum; details: affinity to muscarinic receptor, concentration converted from pA2 value obtained from Schild's plot, acetylcholine contraction
T1 construct: from tissue; host or cells: isolated ileum of male guinea pig
Method: A specimen (length ca. 2 cm) of male guinea pig ileum was suspended into a 10 ml-organ bath filled up with Tyrode solution. The Tyrode solution was constantly gassed with 95% O2 +5% CO2 and maintained at 37 ° C. The contraction was recorded on a pen-and-ink recorder via an isotonic transducer.
Acetylcholine was added cumulatively to the bath to obtain a consistent dose-response curve and then test compound in various concentrations was investigated on the dose-response curve of acetylcholine before and after the treatment for 5 minutes. The contraction was expressed by a ratio to the maximal contraction with acetylcholine in the absence of test compound. The affinity of test compound to the muscarinic receptor was determined by converting into the concentration from pA2 value obtained from Schild's plot.

overactive detrusor = details: clinically; cited from earlier work
[1] = system: urinary bladder (rhythmic bladder contraction); assay: Inhibitory action on the rhythmic bladder contraction; format: in vivo; details: rat, intraduodenal; vs oxybutynin hydrochloride
Method: A male rat was fixed in a supine position under the halothane anesthesia and, a catheter with rubber balloon was inserted into urinary bladder through a small incision of apex of bladder exposed by abdominal opening along the midline and the purse-string suture was performed. The catheter was led out of the upper abdominal part sutured and a three-way stopcock was connected thereto, to one of which a syringe was connected and to other of which a pressure transducer for measuring the intravesical pressure was connected. The rhythmic bladder contraction was induced by infusion of about 0.1 to 0.3 ml of water into the balloon and, after obtaining the constant amplitude of rhythmic bladder contraction, test compound was administered intraduodenally. The inhibitory effects were estimated by the reduction in amplitude of the bladder contraction.

T1 sequence (H0W1Z3 1-590): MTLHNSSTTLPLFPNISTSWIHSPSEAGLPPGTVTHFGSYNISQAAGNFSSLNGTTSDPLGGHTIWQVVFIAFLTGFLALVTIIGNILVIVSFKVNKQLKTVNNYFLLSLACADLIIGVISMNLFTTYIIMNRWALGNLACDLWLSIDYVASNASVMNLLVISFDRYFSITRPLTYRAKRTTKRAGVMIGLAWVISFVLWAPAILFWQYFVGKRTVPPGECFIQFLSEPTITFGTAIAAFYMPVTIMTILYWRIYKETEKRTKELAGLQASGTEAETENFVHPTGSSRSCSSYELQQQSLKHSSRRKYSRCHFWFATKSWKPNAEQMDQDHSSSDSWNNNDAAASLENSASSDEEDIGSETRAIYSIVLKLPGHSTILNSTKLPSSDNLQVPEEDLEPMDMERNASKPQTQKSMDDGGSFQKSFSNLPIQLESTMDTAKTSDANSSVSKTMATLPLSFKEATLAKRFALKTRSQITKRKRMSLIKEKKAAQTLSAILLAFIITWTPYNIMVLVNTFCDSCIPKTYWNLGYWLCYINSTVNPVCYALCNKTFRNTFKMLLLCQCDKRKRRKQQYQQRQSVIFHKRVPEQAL

Kb (muscarinic receptor) [µM]	Compound	bladder selectivity (inhibitory activity on the salivary secretion (ID30)/inhibitory activity on the rhythmic bladder contraction (ED30)) (urinary bladder)	adverse effects (overactive detrusor)	clinical effectiveness (overactive detrusor)	inhibitory activity on bladder compared with oxybutynin hydrochloride [1]
6.3	CCN(CC)CCNC(C(=O)N(C)CCc1ccc(OC)c(OC)c1)c1ccccc1 (stereo not shown) [Example 41]	5			
	CCN(CC)CC#CCOC(=O)C(O)(c1ccccc1)C1CCCCC1 (stereo not shown) [Oxybutynin hydrochloride]		frequently cause the adverse effects such as dry mouth and urinary retention	effective for treatment of syndrome elicited by bladder activity	
5	CCN(CC)CCN(C)C(C(=O)NC(C)(C)C)c1ccccc1 (stereo not shown) [Example 14]	4			
2.5	CCN(CC)CCNC(C(=O)N(CC)CC)c1ccccc1 (stereo not shown) [Example 6]	3			almost equal to that of oxybutynin hydrochloride
1.3	CCN(CC)C(=O)C(NCCN(C(C)C)C(C)C)c1ccccc1 (stereo not shown) [Example 7]	4			almost equal to that of oxybutynin hydrochloride
0.79	CC(C)(C)NCCNC(C(=O)NC1CCCCC1)c1ccccc1 (stereo not drawn) [Example 1, N-cyclohexyl-α-[[2-(tert-butylamino)ethyl]amino]phenylacetamide]	5			almost equal to that of oxybutynin hydrochloride
3.2	CCN(CC)CCNC(C(=O)NC(C)(C)C)c1ccccc1 (stereo not drawn) [Example 3, N-tert-butyl-α-[[2-(diethylamino)ethyl]amino]phenylacetamide]	4			
2	CCN(CC)C(=O)C(NCCNC(C)C)c1ccccc1 (stereo not shown) [Example 4]	4			
0.1	CC(CC(c1ccccc1)c1ccccc1)NC(C)(C)C (stereo not shown) [Terodiline hydrochloride, reference compound]	1	frequently cause the adverse effects such as dry mouth and urinary retention	effective for treatment of syndrome elicited by bladder activity	
16	CCN(CC)C(=O)C(NCCNC(C)(C)C)c1ccccc1 (stereo not drawn) [Example 2, N, N-diethyl-α-[[2-(tert-butylamino)ethyl]amino]phenylacetamide]	6			
